{
  "source": "patent US8415299B2",
  "about": "“Methods for improved avian performance” (priority 2004, dated 2013)",
  "key": {"[1]": {"test_system": "102-week old Hy-Line W-36 White Leghorn hens", "protocol": "Experiment 2. […] The photoperiod was 17 hours of light per day (0330 hours to 2030 hours).\nThe objective was to use T4 to humanely induce molting in hens that are continuously provided with ad libitum access to palatable feed meeting or exceeding all National Research Council (1994) standards. Developing a fully efficacious yet affordable molting protocol was predicated on determining the minimum effective level for T4 supplementation. Factors that potentially may affect the required level of T4 supplementation include: (1) uncertainty regarding the efficiency of T4 absorption by the gastrointestinal tract, (2) the possibility that continuous dietary ingestion of T4 could trigger substantially different biological responses when compared single daily injections, and (3) the likelihood that daily T4 intake would diminish in parallel with molt-related reductions in feed intake associated with cessation in egg production. A spontaneous and voluntary loss of appetite (anorexia) commonly accompanies seasonal molting and broodiness in a variety of avian species (Berry, 2003; Webster, 2003). Accordingly, the responses of hens to diets containing 10, 20, and 40 mg T4/kg, to bracket the anticipated range of T4 needed to cause an effective molt, were determined."}, "laying hens": {"test_system": "laying hens", "settings": "cited from earlier work"}, "[2]": {"settings": "40 mg T4/kg test diet for 10 days"}},
  "note": "Where two headings read alike, the source gives them in different places.",
  "data": [
    {"smiles": "N[C@@H](Cc1cc(I)c(Oc2cc(I)c(O)c(I)c2)c(I)c1)C(=O)O", "note": "[L-thyroxine, 3,5,3′,5′-tetraiodothyronine]", "values": [
      {"measurement": "Time to onset of molt after T4 feeding was initiated", "setting": "[1]; 10 mg T4 kg Group, 10 days on test diets, half of the hens", "value": 11, "unit": "days"},
      {"measurement": "Feed consumption change from days 2-4 (% FCC)", "setting": "[1]; 10 mg/kg feed 6 d, Day 11-14", "value": "−19.7", "unit": "%"},
      {"measurement": "Feed consumption (FC)", "setting": "[1]; 10 mg/kg feed 6 d, Days 2-4 (pre-treatment)", "value": 101.3, "unit": "g/hen/d"},
      {"measurement": "Feed consumption (FC)", "setting": "[1]; 10 mg/kg feed 6 d, Days 5-7", "value": 60.0, "unit": "g/hen/d"},
      {"measurement": "Feed consumption change from days 2-4 (% FCC)", "setting": "[1]; 10 mg/kg feed 6 d, Days 5-7", "value": "−40.8", "unit": "%"},
      {"measurement": "Feed consumption (FC)", "setting": "[1]; 10 mg/kg feed 6 d, Days 8-10", "value": 35.3, "unit": "g/hen/d"},
      {"measurement": "Feed consumption change from days 2-4 (% FCC)", "setting": "[1]; 10 mg/kg feed 6 d, Days 8-10", "value": "−65.2", "unit": "%"},
      {"measurement": "Feed consumption (FC)", "setting": "[1]; 10 mg/kg feed 10 d, Day 11-14", "value": 47.3, "unit": "g/hen/d"},
      {"measurement": "Feed consumption change from days 2-4 (% FCC)", "setting": "[1]; 10 mg/kg feed 10 d, Day 11-14", "value": "−43.7", "unit": "%"},
      {"measurement": "Feed consumption (FC)", "setting": "[1]; 10 mg/kg feed 10 d, Days 2-4 (pre-treatment)", "value": 84.0, "unit": "g/hen/d"},
      {"measurement": "Feed consumption (FC)", "setting": "[1]; 10 mg/kg feed 10 d, Days 5-7", "value": 56.0, "unit": "g/hen/d"},
      {"measurement": "Feed consumption change from days 2-4 (% FCC)", "setting": "[1]; 10 mg/kg feed 10 d, Days 5-7", "value": "−33.3", "unit": "%"},
      {"measurement": "Feed consumption (FC)", "setting": "[1]; 10 mg/kg feed 10 d, Days 8-10", "value": 33.7, "unit": "g/hen/d"},
      {"measurement": "Feed consumption change from days 2-4 (% FCC)", "setting": "[1]; 10 mg/kg feed 10 d, Days 8-10", "value": "−59.9", "unit": "%"},
      {"measurement": "Feed consumption (FC)", "setting": "[1]; 20 mg/kg feed 6 d, Day 11-14", "value": 73.7, "unit": "g/hen/d"},
      {"measurement": "Feed consumption change from days 2-4 (% FCC)", "setting": "[1]; 20 mg/kg feed 6 d, Day 11-14", "value": "−28.4", "unit": "%"},
      {"measurement": "Feed consumption (FC)", "setting": "[1]; 20 mg/kg feed 6 d, Days 2-4 (pre-treatment)", "value": 103.0, "unit": "g/hen/d"},
      {"measurement": "Feed consumption (FC)", "setting": "[1]; 20 mg/kg feed 6 d, Days 5-7", "value": 42.0, "unit": "g/hen/d"},
      {"measurement": "Feed consumption change from days 2-4 (% FCC)", "setting": "[1]; 20 mg/kg feed 6 d, Days 5-7", "value": "−59.2", "unit": "%"},
      {"measurement": "Feed consumption (FC)", "setting": "[1]; 20 mg/kg feed 6 d, Days 8-10", "value": 33.7, "unit": "g/hen/d"},
      {"measurement": "Feed consumption change from days 2-4 (% FCC)", "setting": "[1]; 20 mg/kg feed 6 d, Days 8-10", "value": "−67.3", "unit": "%"},
      {"measurement": "Feed consumption (FC)", "setting": "[1]; 20 mg/kg feed 10 d, Day 11-14", "value": 32.7, "unit": "g/hen/d"},
      {"measurement": "Feed consumption change from days 2-4 (% FCC)", "setting": "[1]; 20 mg/kg feed 10 d, Day 11-14", "value": "−72.9", "unit": "%"},
      {"measurement": "Feed consumption (FC)", "setting": "[1]; 20 mg/kg feed 10 d, Days 2-4 (pre-treatment)", "value": 120.7, "unit": "g/hen/d"},
      {"measurement": "Feed consumption (FC)", "setting": "[1]; 20 mg/kg feed 10 d, Days 5-7", "value": 54.7, "unit": "g/hen/d"},
      {"measurement": "Feed consumption change from days 2-4 (% FCC)", "setting": "[1]; 20 mg/kg feed 10 d, Days 5-7", "value": "−54.7", "unit": "%"},
      {"measurement": "Feed consumption (FC)", "setting": "[1]; 20 mg/kg feed 10 d, Days 8-10", "value": 30.0, "unit": "g/hen/d"},
      {"measurement": "Feed consumption change from days 2-4 (% FCC)", "setting": "[1]; 20 mg/kg feed 10 d, Days 8-10", "value": "−75.1", "unit": "%"},
      {"measurement": "Hen-day egg production", "setting": "[1]; 20 mg/kg feed 10 d, day 4 (pre-treatment)", "value": 75, "unit": "%"},
      {"measurement": "Hen-day egg production", "setting": "[1]; 20 mg/kg feed 10 d, day 30", "value": 25, "unit": "%"},
      {"measurement": "Loss of initial body weight", "setting": "[1]; [2]", "value": "approximately 21%"},
      {"measurement": "Reduction of feed intake", "setting": "[1]; [2]", "value": "approximately 85%"},
      {"measurement": "Feed consumption (FC)", "setting": "[1]; 40 mg/kg feed 6 d, Day 11-14", "value": 46.7, "unit": "g/hen/d"},
      {"measurement": "Feed consumption change from days 2-4 (% FCC)", "setting": "[1]; 40 mg/kg feed 6 d, Day 11-14", "value": "−52.5", "unit": "%"},
      {"measurement": "Feed consumption (FC)", "setting": "[1]; 40 mg/kg feed 6 d, Days 2-4 (pre-treatment)", "value": 98.3, "unit": "g/hen/d"},
      {"measurement": "Feed consumption (FC)", "setting": "[1]; 40 mg/kg feed 6 d, Days 5-7", "value": 36.7, "unit": "g/hen/d"},
      {"measurement": "Feed consumption change from days 2-4 (% FCC)", "setting": "[1]; 40 mg/kg feed 6 d, Days 5-7", "value": "−62.7", "unit": "%"},
      {"measurement": "Feed consumption (FC)", "setting": "[1]; 40 mg/kg feed 6 d, Days 8-10", "value": 13.7, "unit": "g/hen/d"},
      {"measurement": "Feed consumption change from days 2-4 (% FCC)", "setting": "[1]; 40 mg/kg feed 6 d, Days 8-10", "value": "−86.1", "unit": "%"},
      {"measurement": "Hen-day egg production", "setting": "[1]; 40 mg/kg feed 6 d, day 20", "value": 25, "unit": "%"},
      {"measurement": "Hen-day egg production", "setting": "[1]; 40 mg/kg feed 6 d, day 22", "value": 25, "unit": "%"},
      {"measurement": "Hen-day egg production", "setting": "[1]; 40 mg/kg feed 6 d, day 24", "value": 50, "unit": "%"},
      {"measurement": "Feed consumption (FC)", "setting": "[1]; 40 mg/kg feed 10 d, Day 11-14", "value": 19.3, "unit": "g/hen/d"},
      {"measurement": "Feed consumption change from days 2-4 (% FCC)", "setting": "[1]; 40 mg/kg feed 10 d, Day 11-14", "value": "−83.4", "unit": "%"},
      {"measurement": "Feed consumption (FC)", "setting": "[1]; 40 mg/kg feed 10 d, Days 2-4 (pre-treatment)", "value": 116.3, "unit": "g/hen/d"},
      {"measurement": "Feed consumption (FC)", "setting": "[1]; 40 mg/kg feed 10 d, Days 5-7", "value": 37.3, "unit": "g/hen/d"},
      {"measurement": "Feed consumption change from days 2-4 (% FCC)", "setting": "[1]; 40 mg/kg feed 10 d, Days 5-7", "value": "−67.9", "unit": "%"},
      {"measurement": "Feed consumption (FC)", "setting": "[1]; 40 mg/kg feed 10 d, Days 8-10", "value": 22.0, "unit": "g/hen/d"},
      {"measurement": "Feed consumption change from days 2-4 (% FCC)", "setting": "[1]; 40 mg/kg feed 10 d, Days 8-10", "value": "−81.1", "unit": "%"},
      {"measurement": "Hen-day egg production", "setting": "[1]; 40 mg/kg feed 10 d, day 12", "value": 0, "unit": "%"},
      {"measurement": "Hen-day egg production", "setting": "[1]; 40 mg/kg feed 10 d, day 14", "value": 0, "unit": "%"},
      {"measurement": "Hen-day egg production", "setting": "[1]; 40 mg/kg feed 10 d, day 16", "value": 0, "unit": "%"},
      {"measurement": "Hen-day egg production", "setting": "[1]; 40 mg/kg feed 10 d, day 18", "value": 0, "unit": "%"},
      {"measurement": "Hen-day egg production", "setting": "[1]; 40 mg/kg feed 10 d, day 20", "value": 0, "unit": "%"},
      {"measurement": "Mortality", "setting": "[1]; 10, 20, 40 mg T4/kg feed, 6 or 10 days", "value": "No mortality occurred in any of the Groups"},
      {"measurement": "Time within which egg production was consistently reduced", "setting": "[1]; 20 and 40 mg T4/kg feed", "value": "≤ 4", "unit": "days"},
      {"measurement": "Effect on egg production and molting", "setting": "laying hens; 0.2 mg per hen for 21 consecutive days (Szelenyi and Peczely 1988)", "value": "diminished egg production but did not result in molting"},
      {"measurement": "Mortality", "setting": "laying hens; injected, e.g. 243 micrograms/100 g body weight, White Leghorn hens 7 months of age (Miller et al. 1962)", "value": 47, "unit": "%"}
    ]}
  ]
}
